# Measured values as given in patent publication US12503475B2 (Centessa Pharmaceuticals (UK) Limited, priority 2020, dated 2025).
# Where two headings read alike, the source gives them in different places.
# Target: T1, human orexin type 2 receptor (hOX2R) (Homo sapiens, UniProt O43614)
# T1 construct: expressed in transfected cells
# T1 sequence (O43614 1-444): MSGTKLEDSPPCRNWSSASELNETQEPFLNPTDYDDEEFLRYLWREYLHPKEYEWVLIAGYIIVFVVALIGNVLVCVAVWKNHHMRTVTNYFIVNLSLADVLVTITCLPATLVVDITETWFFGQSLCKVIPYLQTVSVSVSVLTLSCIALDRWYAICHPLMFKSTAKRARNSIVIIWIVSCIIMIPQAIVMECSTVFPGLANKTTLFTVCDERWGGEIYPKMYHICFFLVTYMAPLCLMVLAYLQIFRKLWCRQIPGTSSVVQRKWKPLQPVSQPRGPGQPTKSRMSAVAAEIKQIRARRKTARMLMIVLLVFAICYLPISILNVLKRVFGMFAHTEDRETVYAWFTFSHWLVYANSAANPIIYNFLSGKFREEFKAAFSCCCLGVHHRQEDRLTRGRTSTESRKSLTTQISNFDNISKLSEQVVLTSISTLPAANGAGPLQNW
# Assay: Measurement of orexin type 2 receptor agonist activity (FLIPR calcium fluorescence)
# Format: cell-based
# Details: for EC50: read-out: hOx2 pEC50 (converted); for Emax: CHO, read-out: hOx2 Emax (%)
# Summary of the method: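 Agonism was read as fluorescence in cells stably expressing human OX2R. E. is the response at 10 μM relative to orexin A as full agonist (100%).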
# [1] = CHO cells expressing hOX2R, FLIPR calcium fluorescence
Structure (SMILES),EC50 [1] [nM],Emax [1] [%],Emax [%]
"O=C(NCC1(F)CC1)N1CC2(CC2)[C@H](NS(=O)(=O)CF)[C@@H]1Cc1cc(F)cc(-c2ccccc2)c1F [Compound 228, (6S,7S)-6-((2,5-difluoro-[1,1′-biphenyl]-3-yl)methyl)-N-((1-fluorocyclopropyl)methyl)-7-((fluoromethyl)sulfonamido)-5-azaspiro[2.4]heptane-5-carboxamide]",1 to 10,90 to 100,
"CN(C)S(=O)(=O)N[C@@H]1[C@H](Cc2cccc(-c3ccccc3)c2F)N(C(=O)N2CCC2)CC12CC2 [Compound 116, N-((6S,7S)-5-(azetidine-1-carbonyl)-6-((2-fluoro-[1,1′-biphenyl]-3-yl)methyl)-5-azaspiro[2.4]heptan-7-yl)-N,N-dimethylsulfuric diamide]",0.0794 to 1,,90 to 100
"CS(=O)(=O)NC1C(Cc2cccc(-c3cccc(F)c3)c2)N(C(=O)C2(O)CCC2)CC12CC2 (racemic) [Compound 51, N-(6-((3′-fluoro-[1,1′-biphenyl]-3-yl)methyl)-5-(1-hydroxycyclobutane-1-carbonyl)-5-zaspiro[2.4]heptan-7-yl)methanesulfonamide]",1 to 10,90 to 100,
"CCS(=O)(=O)N[C@@H]1[C@H](Cc2cccc(-c3cc(F)cc(F)c3)c2F)N(C(=O)[C@H]2CCO2)CC12CC2 [Compound 185, N-((6S,7S)-5-((R)-oxetane-2-carbonyl)-6-((2,3′,5′-trifluoro-[, 1′-biphenyl]-3-yl)methyl)-5-azaspiro[2.4]heptan-7-yl)ethanesulfonamide]",0.0794 to 1,90 to 100,
O=C([C@H]1C[C@H](F)C1)N1CC2(CC2)[C@H](NS(=O)(=O)CF)[C@@H]1Cc1cccc(-c2ccccc2)c1F [Compound 188],1 to 10,90 to 100,
"O=C(NCCF)N1CC2(CC2)[C@H](NS(=O)(=O)C(F)F)[C@@H]1Cc1cccc(-c2ccccc2)c1F [Compound 207, (6S,7S)-7-((difluoromethyl)sulfonamido)-6-((2-fluoro-[1,1′-biphenyl]-3-yl)methyl)-N-(2-fluoroethyl)-5-azaspiro[2.4]heptane-5-carboxamide]",1 to 10,90 to 100,
"CC(C)S(=O)(=O)N[C@@H]1[C@H](Cc2cccc(-c3ccccc3)c2)N(C(=O)[C@H]2CCO2)CC12CC2 [Compound 114, N-((6S,7S)-6-([1,1′-biphenyl]-3-ylmethyl)-5-((R)-oxetane-2-carbonyl)-5-azaspiro[2.4]heptan-7-yl)propane-2-sulfonamide]",1 to 10,80 to 90,
"CC(C)(O)C(=O)N1CC2(CC2)[C@H](NS(=O)(=O)CF)[C@@H]1Cc1cc(F)cc(-c2cc(F)cc(F)c2)c1F [Compound 419, 1-fluoro-N-((6S,7S)-5-(2-hydroxy-2-methylpropanoyl)-6-((2,3′,5,5′-tetrafluoro-[1,1′-biphenyl]-3-yl)methyl)-5-azaspiro[2.4]heptan-7-yl)methanesulfonamide]",1 to 10,90 to 100,
"CCN(C)S(=O)(=O)N[C@@H]1[C@H](Cc2cccc(-c3ccccc3)c2)N(C(=O)[C@H]2CCO2)CC12CC2 [Compound 78, N-((6S,7S)-6-([1,1′-biphenyl]-3-ylmethyl)-5-((R)-oxetane-2-carbonyl)-5-azaspiro[2.4]heptan-7-yl)-N-methyl-N-ethylsulfuric diamide]",10 to 100,90 to 100,
"CC(C)C(=O)N1CC2(CC2)C(NS(C)(=O)=O)C1Cc1cccc(-c2cccc(F)c2)c1 (racemic) [Compound 8, N-(6-((3′-fluoro-[1,1′-biphenyl]-3-yl)methyl)-5-isobutyryl-5-azaspiro[2.4]heptan-7-yl)methanesulfonamide]",1 to 10,90 to 100,
"COCCNC(=O)N1CC2(CC2)[C@H](NS(=O)(=O)CF)[C@@H]1Cc1cccc(-c2ccccc2)c1F [Compound 357, (6S,7S)-6-((2-fluoro-[1,1′-biphenyl]-3-yl)methyl)-7-((fluoromethyl)sulfonamido)-N-(2-methoxyethyl)-5-azaspiro[2.4]heptane-5-carboxamide]",10 to 100,90 to 100,
C[C@H](CF)NC(=O)N1CC2(CC2)[C@H](NS(=O)(=O)CF)[C@@H]1Cc1cccc(-c2ccccc2)c1F [Compound 158],0.0794 to 1,90 to 100,
"C[C@@H](NC(=O)N1CC2(CC2)[C@H](NS(=O)(=O)CF)[C@@H]1Cc1cccc(-c2ccccc2)c1F)C(F)F [Compound 219, (6S,7S)-N-((R)-1,1-difluoropropan-2-yl)-6-((2-fluoro-[1,1′-biphenyl]-3-yl)methyl)-7-((fluoromethyl)sulfonamido)-5-azaspiro[2.4]heptane-5-carboxamide]",1 to 10,90 to 100,

# Second part, led by results:
EC50 [1] [nM],Emax [1] [%],Structure (SMILES),Emax [%]
1 to 10,90 to 100,"O=C([C@H](O)CF)N1CC2(CC2)[C@H](NS(=O)(=O)C(F)F)[C@@H]1Cc1cccc(-c2ccccc2)c1F [Compound 174, 1,1-difluoro-N-((6S,7S)-5-((S)-3-fluoro-2-hydroxypropanoyl)-6-((2-fluoro-[1,1′-biphenyl]-3-yl)methyl)-5-azaspiro[2.4]heptan-7-yl)methanesulfonamide]",
,80 to 90,"O=C([C@H]1CCO1)N1CC2(CC2)[C@H](NS(=O)(=O)CF)[C@@H]1Cc1cccc(-c2ccccc2)c1 [Compound 48, N-((6S,7S)-6-([1,1′-biphenyl]-3-ylmethyl)-5-((R)-oxetane-2-carbonyl)-5-azaspiro[2.4]heptan-7-yl)-1-fluoromethanesulfonamide]",
10 to 100,90 to 100,[2H]c1ccc(-c2cc(F)cc(C[C@H]3[C@@H](NS(C)(=O)=O)C4(CC4)CN3C(=O)[C@H]3CCO3)c2F)cc1 [Compound 359],
0.0794 to 1,80 to 90,"CN(C)S(=O)(=O)N[C@@H]1[C@H](Cc2cc(F)cc(-c3cccc(F)c3)c2F)N(C(=O)[C@H]2CCO2)CC12CC2 [Compound 124, 1-fluoro-N-((6S,7S)-5-((R)-oxetane-2-carbonyl)-6-((2,3′,5-trifluoro-[1,1′-biphenyl]-3-yl)methyl)-5-azaspiro[2.4]heptan-7-yl)-N,N-dimethylsulfuric diamide]",
0.0794 to 1,90 to 100,"O=C([C@H]1CCO1)N1CC2(CC2)[C@H](NS(=O)(=O)C2CC2)[C@@H]1Cc1cccc(-c2ccccc2)c1F [Compound 69, N-((6S 7S)-6-((2-fluoro-[1,1′-biphenyl]-3-yl)methyl)-5-((R)-oxetane-2-carbonyl)-5-azaspiro[2.4]heptan-7-yl)cyclopropanesulfonamide]",
1 to 10,90 to 100,"CCS(=O)(=O)NC1C(Cc2cccc(-c3ccccc3)c2)N(C(=O)C(C)C)CC12CC2 (racemic) [Compound 7, N-(6-([1,1-biphenyl]-3-ylmethyl)-5-isobutyryl-5-azaspiro[2.4]heptan-7-yl)ethanesulfonamide]",
10 to 100,90 to 100,"N#CCS(=O)(=O)N[C@@H]1[C@H](Cc2cccc(-c3ccccc3)c2F)N(C(=O)[C@H]2CCO2)CC12CC2 [Compound 362, 1-cyano-N-((6S,7S)-6-((2-fluoro-[1,1′-biphenyl]-3-yl)methyl)-5-((R)-oxetane-2-carbonyl)-5-azaspiro[2.4]heptan-7-yl)methanesulfonamide]",
10 to 100,90 to 100,"CS(=O)(=O)N[C@@H]1[C@H](Cc2cccc(-c3ccccc3)c2)N(C(=O)[C@H](O)C(F)(F)F)CC12CC2 [Compound 299, N-((6S,7S)-6-([1,1′-biphenyl]-3-ylmethyl)-5-((S)-3,3,3-trifluoro-2-hydroxypropanoyl)-5-azaspiro[2.4]heptan-7-yl)methanesulfonamide]",
